Test results taken from the supplement of paper PMC10307832.

Assays:
Experiment in all cases: relative viability (nuclei count vs DMSO), 5 days (fraction); higher = more cells survive
Cytarabine = compound: Nc1ccn([C@@H]2O[C@H](CO)[C@@H](O)[C@@H]2O)c(=O)n1 [Cytarabine]
Outline: (§1)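 Lung cancer cell lines in 1536-well plates were exposed by pinning to five library-drug doses (not always all listed) √10 apart, following an overnight hold at 37 °C. MetaXpress counted Hoechst-stained nuclei from 4× images taken after 5 days without medium change. Viability is the median ratio of treated-well to vehicle-well nuclei across plates. Plates required control CV below 25% and at least one doubling.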

[1] = compound: Cc1cnc(-c2cnc(NCCNc3ccc(C#N)cn3)nc2-c2ccc(Cl)cc2Cl)[nH]1
Outline: as §1

Pimozide = compound: O=c1[nH]c2ccccc2n1C1CCN(CCCC(c2ccc(F)cc2)c2ccc(F)cc2)CC1 [Pimozide]
Outline: as §1

Docetaxel = compound: CC(=O)O[C@@]12CO[C@@H]1C[C@H](O)[C@@]1(C)C(=O)[C@H](O)C3=C(C)[C@@H](OC(=O)[C@H](O)[C@@H](NC(=O)OC(C)(C)C)c4ccccc4)C[C@@](O)([C@@H](OC(=O)c4ccccc4)[C@H]21)C3(C)C [Docetaxel]
Outline: as §1

CPI-613 = compound: O=C(O)CCCCC(CCSCc1ccccc1)SCc1ccccc1 [CPI-613]
Outline: as §1

Tivozanib = compound: COc1cc2nccc(Oc3ccc(NC(=O)Nc4cc(C)on4)c(Cl)c3)c2cc1OC [Tivozanib]
Outline: as §1

JQ1 = compound: Cc1sc2c(c1C)C(c1ccc(Cl)cc1)=N[C@@H](CC(=O)OC(C)(C)C)c1nnc(C)n1-2 [JQ1]
Outline: as §1

Cell Line	relative viability (Cytarabine; 0.005 µM)	relative viability (Cytarabine; 0.01581 µM)	relative viability (Cytarabine; 0.05 µM)	relative viability (Cytarabine; 0.1581 µM)	relative viability (Cytarabine; 0.5 µM)	relative viability ([1]; 0.08 µM)	relative viability ([1]; 0.253 µM)	relative viability ([1]; 0.8 µM)	relative viability ([1]; 2.53 µM)	relative viability (Pimozide; 0.08 µM)	relative viability (Pimozide; 0.253 µM)	relative viability (Pimozide; 0.8 µM)	relative viability (Pimozide; 2.53 µM)	relative viability (Pimozide; 8 µM)	relative viability (Docetaxel; 0.0002 µM)	relative viability (Docetaxel; 0.000632 µM)	relative viability (Docetaxel; 0.002 µM)	relative viability (Docetaxel; 0.006325 µM)	relative viability (Docetaxel; 0.02 µM)	relative viability (CPI-613; 5 µM)	relative viability (CPI-613; 15.81 µM)	relative viability (CPI-613; 50 µM)	relative viability (CPI-613; 158.11 µM)	relative viability (CPI-613; 500 µM)	relative viability (Tivozanib; 0.005 µM)	relative viability (Tivozanib; 0.01581 µM)	relative viability (Tivozanib; 0.05 µM)	relative viability (Tivozanib; 0.1581 µM)	relative viability (Tivozanib; 0.5 µM)	relative viability (JQ1; 0.04 µM)	relative viability (JQ1; 0.1265 µM)	relative viability (JQ1; 0.4 µM)	relative viability (JQ1; 1.265 µM)	relative viability (JQ1; 4 µM)
NCI-H2405	0.927	0.712	0.57	0.512	0.384	1.01	0.938	0.948	0.736	0.964	0.937	1.03	0.992	0.96	0.982	0.879	0.633	0.453	0.339	0.996	0.909	0.939	0.931	0.78	0.933	1.02	1.04	0.89	0.772	1.03	0.598	0.921	0.711	0.499
NCI-H322M	0.877	0.794	0.628	0.475	0.336	0.976	0.842	0.853	1.26	–	0.932	1.02	0.948	0.705	0.957	0.889	0.762	0.612	0.439	0.894	0.85	0.899	0.911	0.153	0.948	0.929	0.972	0.791	0.902	0.917	1.05	0.822	0.57	0.437
IA-LM	0.962	0.814	0.662	0.38	0.226	1.02	0.8	1.02	0.916	0.951	1.02	0.929	1.02	0.966	0.704	0.231	0.131	0.0652	0.0513	0.818	0.779	0.85	0.525	0.671	0.865	1.01	0.909	0.767	0.845	0.907	0.419	0.165	0.11	0.085
BEN	0.892	0.794	0.617	0.473	0.335	1.05	0.991	0.933	0.984	0.96	1.07	0.975	0.925	1.04	0.951	1.01	0.593	0.291	0.198	0.988	0.843	0.96	0.799	0.811	0.922	1.05	1.02	–	0.889	0.809	0.848	0.594	0.44	0.387
NCI-H2126	0.887	0.9	0.716	0.714	0.618	1.03	0.927	0.952	1.04	0.978	0.948	1.02	0.966	0.986	1.02	0.886	0.624	0.369	0.227	0.98	0.991	1.05	0.563	0.592	0.968	0.961	1.04	0.713	0.98	1.01	0.928	0.858	0.697	0.648
NCI-H661	1.04	0.93	0.902	0.715	0.581	0.979	0.973	0.975	0.898	0.99	1.01	0.925	0.897	0.924	0.93	0.986	1	0.541	0.459	0.963	0.914	0.956	0.832	0.233	0.954	0.975	0.993	0.992	1.01	1.03	0.962	0.952	0.879	0.769
SK-LU-1	0.853	0.868	0.776	0.433	0.322	1.12	0.967	1.06	1.14	1.02	1.03	0.986	0.876	0.858	0.843	0.64	0.425	0.329	0.255	1.04	0.911	0.995	0.668	0.473	1	1.02	1.12	0.928	1.05	1	0.91	0.91	0.377	0.238
A-427	0.823	0.449	0.329	0.214	0.204	1.04	0.852	0.959	0.948	0.952	0.967	0.94	0.882	0.845	0.931	0.952	0.439	0.281	0.171	1	0.898	0.939	0.772	0.157	0.98	1	1.03	0.902	0.833	0.902	0.879	0.91	0.653	0.504
201T	0.981	1.03	0.977	0.873	0.787	1.01	–	0.966	0.992	0.98	0.977	0.965	0.936	0.832	0.977	0.963	0.657	0.469	0.369	0.97	0.909	0.968	0.756	0.862	1.01	1.01	1.03	0.912	0.991	0.97	0.561	0.865	0.458	0.386
SW 900	0.725	0.674	0.564	0.26	0.204	0.902	0.803	0.759	0.729	0.916	0.84	0.468	0.811	0.742	0.69	0.422	0.292	0.232	0.174	0.837	0.642	1.02	0.601	0.0301	0.894	0.855	0.844	0.4	0.791	0.87	0.766	0.557	0.26	0.209
SK-MES-1	0.875	0.712	0.355	0.258	0.221	1.09	0.947	1.02	1.1	0.942	0.998	0.979	1.01	0.985	1	0.872	0.418	0.267	0.172	0.967	0.904	0.98	0.531	0.477	0.997	0.993	1.02	1	0.959	0.937	0.717	0.603	0.311	0.25
HOP-62	0.848	0.636	0.431	0.159	0.104	0.989	0.826	1.02	0.942	1.04	0.947	0.646	0.994	0.981	0.969	0.759	0.543	0.289	0.184	0.978	0.936	1	0.833	0.643	1.01	1.03	1.09	0.936	0.978	0.999	0.808	0.662	0.29	0.153
NCI-H23	0.773	0.564	0.559	0.246	0.203	0.891	0.873	0.941	0.842	0.95	1.05	0.773	0.851	0.808	0.99	0.725	0.296	0.209	0.137	0.982	0.881	0.943	0.39	0.043	0.943	0.966	0.913	0.661	0.61	0.919	0.874	0.584	0.274	0.218
